The results in this text go back to patent US20240350456A1, “COMPOSITIONS AND METHODS FOR DIAGNOSING AND TREATING INFLAMMATORY CONDITIONS” (RUTGERS, THE STATE UNIVERSITY OF NEW JERSEY, priority 2023, published 2024).

Experiment [1] relates to Tff3 and Lyz1 (goblet and Paneth cells). Description: Organoids: goblet and Paneth cell transcripts (Tff3, Lyz1) and cell numbers. In kind it is cell-based, mouse. The following applies: enteroids. The method, then: (§1) We had 2 series of metabolite-treated organoid experiments, i.e., 1) organoid from conventional C57BL6 mice and 2) Ocln KO and littermate WT control as a gift from Prof. Jerrold Turner (Harvard University). […] Seeding is designated as day 0. On day 3 of culture, the existing media in the wells were completely removed before adding treatments. LPS (1 μg/mL) with or without metabolites, i.e., IPA (0.1 mM) (Li et al., 2021), IAM (200 μM) (Vyhlidalova et al., 2020), MNA (12 ng/ml) (Liu et al., 2015), CARN (20 mM) (Boldyrev et al., 2013) or ASA (1 μM) (Erez et al., 2011) were each added in CCM at known physiological concentrations, incubated for 48 hours, thereafter, organoid was harvested for RNA extraction, and paraformaldehyde fixation for immunostaining.
Total RNA was extracted from the intestinal organoids using a commercially available kit (RNeasy Microkit; Qiagen, MD, Cat. #74004) following manufacturer's instructions. mRNA samples were converted to cDNA using Bio-Rad's iScript Reverse Transcription Supermix for RT-qPCR (Bio-Rad Laboratories, Hercules, CA, Cat. #1708840). cDNA was then used for RT-qPCR (Mx3000P. Stratagene, La Jolla, CA) to analyze several genes using Maxima SYBR Green qPCR Master Mix (Thermo Fisher Scientific, Waltham, MA) and primers (Integrated DNA Technologies, Coralville, IA). Thermal profile for three-step cycling was 10 min at 95° C. for initial denaturation; then 40 cycles of 15 sec at 95° C. for denaturation, 30 sec at 65° C. for annealing, and 30 sec at 75° C. for extension. Primers used are as follows: β-actin (Actb), forward 5′-[…]-3′ (SEQ ID NO: 5), reverse 5′-[…]-3′ (SEQ ID NO: 6); ZO-1 (Tjp1), forward 5′-[…]-3′ (SEQ ID NO: 7), reverse 5′-[…]-3′ (SEQ ID NO: 8), Ocln, forward 5′-[…]-3′ (SEQ ID NO: 9), reverse 5′-[…]-3′ (SEQ ID NO: 10); Lyz1, forward 5′-ATGGCTACCGTGGTGTCAAG-3′ (SEQ ID NO: 11), reverse 5′-CGGTCTCCACGGTTGTAGTT-3′ (SEQ ID NO: 12); Tff3, forward 5′-TAATGCTGTTGGTGGTCCTG-3′ (SEQ ID NO: 13), reverse 5′-CAGCCACGGTTGTTACACTG-3′ (SEQ ID NO: 14). All samples were normalized to β actin expression. Gene expression levels are depicted as fold change relative to the control group.
Immunocytochemistry followed earlier work (Pearce et al., 2018). Briefly, organoids were extracted from Matrigel by using cell recovery solution (Corning, Cat. No. 354253), processed then fixed in 4% paraformaldehyde for 15 min and dehydrated with 70% ethanol and kept in 4° C. until embedded in paraffin. On the day of embedding, organoids were gently spun down to a pellet (250 g for 5 min), then the supernatant was removed, the pellet resuspended in agarose and embedded in paraffin. […]

Experiment [2] concerns human-derived Caco-2 cells. The experiment is described as follows: In vitro transwell screening in Caco-2 cells, barrier disrupted by Clostridium difficile toxin (TEER and FITC-dextran permeability). Format: cell-based. Conditions: applied in the basolateral compartment, TOX. In general terms: Caco-2 cells form a polarised layer with tight junctions and transporters.
The subject of experiment [3] is mouse intestinal organoids. Description: Organoid permeability assay with 4 kDa FITC-dextran, LPS with or without metabolites. The following applies: ex vivo organoids. In kind it is cell-based. The protocol: Intestinal organoids were isolated as previously described (Das et al., 2015; Pearce et al., 2018). Briefly, crypts were isolated from small intestine of conventional house C57BL/6 male mice (Taconic Laboratories, Hudson, NY) by shaking in isolation buffer (2 mM EDTA in PBS), then, crypts were harvested, processed, and suspended in crypt culture medium (CCM), which consisted of advanced DMEM/F12 (Life Technologies, Carlsbad, CA) supplemented with serum-free B27 (1:50; Life Technologies), N2 (1:100; Life Technologies), N-acetylcysteine (1 mM; Sigma-Aldrich, St. Louis, MO), recombinant murine epithelial growth factor (EGF, 50 ng/ml; Peprotech, Rocky Hill, NJ), Noggin (100 ng/ml; Peprotech), R-Spondin (500 ng/ml; Peprotech), Glutamax-I supplement (1:100; Life Technologies), penicillin/streptomycin (500 μg/ml; Life Technologies), and HEPES ([…]; Life Technologies). Crypts were resuspended in 70% Matrigel (density ˜450 crypts per dome, 2 domes per well in 24-well plate) and allowed to solidify at 37° C. for 20 min. CCM (1.5 mL) was then added to each well. Cultures were incubated in a humidified incubator at 37° C., and CCM was changed daily. Intestinal organoid treatment with LPS and metabolites
as §1
Permeability assays followed earlier work (Pearce et al., 2018). Briefly, all media were removed and then organoid were incubated with CCM containing 4 kDa FITC-dextran (Sigma-Aldrich, St. Louis, MO, Cat. #46944) at a final concentration of 1.25 µM for 30 minutes at 37° C. and at 5% CO2. […] A fluorescent microscope (Nikon Eclipse TI, NY) at a 10× magnification was used to observe and capture the fluorescence within the lumen of the organoids. Using the same area as the lumen, three different background samples are measured randomly around the lumen. The three background samples measured are averaged and then subtracted from the measured fluorescence of the lumen. […] The quantification of the fluorescence was conducted using the ImageJ 1.53 (NIH, Bethesda, MD).

The next experiment deals with Caco2 BBE monolayer. Description: TEER of confluent Caco2 BBE monolayer disrupted by luminal DSS, with MNA. In kind it is cell-based, human. Conditions: low dose.

Description for Caco2 BBE monolayer: MNA was applied from Day-5 at different concentrations on the luminal (L) or basolateral (BL) compartments. The monolayer was disrupted by 3% DSS in the luminal side on days 5-8.
Caco2 were provided with MNA at day 0 either luminally (L, mimics oral) or basolaterally (BL, mimics intra-peritoneal) (FIG. 17). Then DSS was added to lumen to disrupt gut barrier in all treatments except control (blue circles).

For the compound `NC(=O)Cc1c[nH]c2ccccc12` [Indole-3-acetamide, indole-3-acetamide], in experiment [1], the “goblet and Paneth cell transcripts and cell numbers” value was “reduced goblet and Paneth cell transcripts as well as cell numbers”. Moreover, the “TEER, indole metabolites” value in experiment [2] is reported as “more effective when applied in this compartment than in the luminal”. Further, in experiment [3], the “disruption of the gut barrier, fluorescence microscopy (FIG. 11M)” value is on record as “prevented disruption of the gut barrier”.

`C[n+]1cccc(C(N)=O)c1` [Methylnicotinamide, 1-methynicotinamide]: in experiment [1], the “goblet and Paneth cell transcripts and cell numbers” value is “reduced goblet and Paneth cell transcripts as well as cell numbers”. For the same compound, in the experiment on Caco2 BBE monolayer, the “TEER after DSS barrier disruption” value is listed as “prevented barrier disruption”. Besides, the “disruption of the gut barrier, fluorescence microscopy (FIG. 11M)” value in experiment [3] is reported as “prevented disruption of the gut barrier”.
